Key:
[1] = target: GDP-bound HRAS wild-type protein (Homo sapiens, UniProt P01112); test: Binding to HRAS by surface plasmon resonance (SPR), Single Cycle Kinetics; details: KD ratio HRAS/KRAS, class symbols
[2] = target: GDP-bound NRAS wild-type protein (Homo sapiens, UniProt P01111); test: Binding to NRAS by surface plasmon resonance (SPR), Single Cycle Kinetics; details: KD ratio NRAS/KRAS, class symbols
Chain of GDP-bound NRAS wild-type protein (P01111 whole entry): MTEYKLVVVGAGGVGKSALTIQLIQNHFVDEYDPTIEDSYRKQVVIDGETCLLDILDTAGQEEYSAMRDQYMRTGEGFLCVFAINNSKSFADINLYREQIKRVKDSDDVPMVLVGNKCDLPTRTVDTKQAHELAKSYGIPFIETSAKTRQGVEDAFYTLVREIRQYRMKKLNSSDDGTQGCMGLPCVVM

Chain of GDP-bound HRAS wild-type protein (P01112 whole entry): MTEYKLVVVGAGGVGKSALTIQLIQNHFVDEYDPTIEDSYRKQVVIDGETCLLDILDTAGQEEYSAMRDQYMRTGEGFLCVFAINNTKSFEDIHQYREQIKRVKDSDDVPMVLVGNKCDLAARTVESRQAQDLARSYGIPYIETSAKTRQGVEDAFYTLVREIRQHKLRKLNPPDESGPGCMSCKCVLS

CCO[C@@H]1C[C@H]2C(=O)NC3(CCC3)C(=O)N(C)[C@@H](C3CCCC3)C(=O)N(C)[C@H](C(=O)N(C)C)CC(=O)N(C)[C@@H](CC3CCCC3)C(=O)N[C@@H]([C@@H](C)CC)C(=O)N(C)CC(=O)N(C)[C@H]3C/C=C\CCN(C3=O)[C@@H](Cc3ccc(C)cc3)C(=O)N(C)CC(=O)N[C@@H](CCc3ccc(C(F)(F)F)c(CC)c3)C(=O)N2C1 [PP2672]
HRAS/KRAS (ratio of KD value with respect to GDP-bound HRAS wild-type protein to KD value with respect to KRAS) [1]: B (a compound having 3 or more and less than 10 is denoted as B)
NRAS/KRAS (ratio of KD value with respect to GDP-bound NRAS wild-type protein to KD value with respect to KRAS) [2]: B (a compound having 3 or more and less than 10 is denoted as B)

CCO[C@@H]1C[C@H]2C(=O)NC3(CCC3)C(=O)N(C)[C@@H](C3CCCC3)C(=O)N(C)[C@H](C(=O)N(C)C)CC(=O)N(C)[C@@H](CC3CCCC3)C(=O)N[C@@H]([C@@H](C)CC)C(=O)N(C)CC(=O)N(C)[C@H]3C/C=C\CCN(C3=O)[C@@H](Cc3ccc(C)cc3)C(=O)N(C)CC(=O)N[C@@H](CCc3cc(F)c(CC)c(OC)c3)C(=O)N2C1 [PP2674]
HRAS/KRAS (ratio of KD value with respect to GDP-bound HRAS wild-type protein to KD value with respect to KRAS) [1]: A (a compound having 10 or more and less than 20 is denoted as A)
NRAS/KRAS (ratio of KD value with respect to GDP-bound NRAS wild-type protein to KD value with respect to KRAS) [2]: A (a compound having 10 or more and less than 20 is denoted as A)

CCO[C@@H]1C[C@H]2C(=O)NC3(CCC3)C(=O)N(C)[C@@H](C3CCCC3)C(=O)N(C)[C@H](C(=O)N(C)C)CC(=O)N(C)[C@@H](CC3CCCC3)C(=O)N[C@@H]([C@@H](C)CC)C(=O)N(C)CC(=O)N(C)[C@H]3C/C=C\CCN(C3=O)[C@@H](Cc3ccc(C)cc3)C(=O)N(C)CC(=O)N[C@@H](CCc3cc(C)c(C(F)F)c(C)c3)C(=O)N2C1 [PP2675]
HRAS/KRAS (ratio of KD value with respect to GDP-bound HRAS wild-type protein to KD value with respect to KRAS) [1]: A (a compound having 10 or more and less than 20 is denoted as A)
NRAS/KRAS (ratio of KD value with respect to GDP-bound NRAS wild-type protein to KD value with respect to KRAS) [2]: A (a compound having 10 or more and less than 20 is denoted as A)

CCO[C@@H]1C[C@H]2C(=O)NC3(CCC3)C(=O)N(C)[C@@H](C3CCCC3)C(=O)N(C)[C@H](C(=O)N(C)C)CC(=O)N(C)[C@@H](CC3CCCC3)C(=O)N[C@@H]([C@@H](C)CC)C(=O)N(C)CC(=O)N(C)[C@H]3C/C=C\CCN(C3=O)[C@@H](Cc3ccc(C)cc3)C(=O)N(C)CC(=O)N[C@@H](CCc3cc(C)c(C(F)F)c(F)c3)C(=O)N2C1 [PP2676]
HRAS/KRAS (ratio of KD value with respect to GDP-bound HRAS wild-type protein to KD value with respect to KRAS) [1]: A (a compound having 10 or more and less than 20 is denoted as A)
NRAS/KRAS (ratio of KD value with respect to GDP-bound NRAS wild-type protein to KD value with respect to KRAS) [2]: A (a compound having 10 or more and less than 20 is denoted as A)

CCO[C@@H]1C[C@H]2C(=O)NC3(CCC3)C(=O)N(C)[C@@H](C3CCCC3)C(=O)N(C)[C@H](C(=O)N(C)C)CC(=O)N(C)[C@@H](CC3CCCC3)C(=O)N[C@@H]([C@@H](C)CC)C(=O)N(C)CC(=O)N(C)[C@H]3C/C=C\CCN(C3=O)[C@@H](Cc3ccc(C)cc3)C(=O)N(C)CC(=O)N[C@@H](CCc3cc(C)c(C(F)F)c(Cl)c3)C(=O)N2C1 [PP2677]
HRAS/KRAS (ratio of KD value with respect to GDP-bound HRAS wild-type protein to KD value with respect to KRAS) [1]: A (a compound having 10 or more and less than 20 is denoted as A)
NRAS/KRAS (ratio of KD value with respect to GDP-bound NRAS wild-type protein to KD value with respect to KRAS) [2]: A (a compound having 10 or more and less than 20 is denoted as A)

CCO[C@@H]1C[C@H]2C(=O)NC3(CCC3)C(=O)N(C)[C@@H](C3CCCC3)C(=O)N(C)[C@H](C(=O)N(C)C)CC(=O)N(C)[C@@H](CC3CCCC3)C(=O)N[C@@H]([C@@H](C)CC)C(=O)N(C)CC(=O)N(C)[C@H]3C/C=C\CCN(C3=O)[C@@H](Cc3ccc(C)cc3)C(=O)N(C)CC(=O)N[C@@H](CCc3cc(Cl)c(C(F)(F)F)c(Cl)c3)C(=O)N2C1 [PP2679]
HRAS/KRAS (ratio of KD value with respect to GDP-bound HRAS wild-type protein to KD value with respect to KRAS) [1]: A (a compound having 10 or more and less than 20 is denoted as A)
NRAS/KRAS (ratio of KD value with respect to GDP-bound NRAS wild-type protein to KD value with respect to KRAS) [2]: A (a compound having 10 or more and less than 20 is denoted as A)

CCO[C@@H]1C[C@H]2C(=O)NC3(CCC3)C(=O)N(C)[C@@H](C3CCCC3)C(=O)N(C)[C@H](C(=O)N(C)C)CC(=O)N(C)[C@@H](CC3CCCC3)C(=O)N[C@@H]([C@@H](C)CC)C(=O)N(C)CC(=O)N(C)[C@H]3C/C=C\CCN(C3=O)[C@@H](Cc3ccc(C)cc3)C(=O)N(C)CC(=O)N[C@@H](CCc3ccc(C(F)(F)F)c(C4CC4)c3)C(=O)N2C1 [PP2681]
HRAS/KRAS (ratio of KD value with respect to GDP-bound HRAS wild-type protein to KD value with respect to KRAS) [1]: A (a compound having 10 or more and less than 20 is denoted as A)
NRAS/KRAS (ratio of KD value with respect to GDP-bound NRAS wild-type protein to KD value with respect to KRAS) [2]: A (a compound having 10 or more and less than 20 is denoted as A)

CCO[C@@H]1C[C@H]2C(=O)NC3(CCC3)C(=O)N(C)[C@@H](C3CCCC3)C(=O)N(C)[C@H](C(=O)N(C)C)CC(=O)N(C)[C@@H](CC3CCCC3)C(=O)N[C@@H]([C@@H](C)CC)C(=O)N(C)CC(=O)N(C)[C@H]3C/C=C\CCN(C3=O)[C@@H](Cc3ccc(C)cc3)C(=O)N(C)CC(=O)N[C@@H](CCc3ccc(C4CC4)c(F)c3)C(=O)N2C1 [PP2683]
HRAS/KRAS (ratio of KD value with respect to GDP-bound HRAS wild-type protein to KD value with respect to KRAS) [1]: A (a compound having 10 or more and less than 20 is denoted as A)
NRAS/KRAS (ratio of KD value with respect to GDP-bound NRAS wild-type protein to KD value with respect to KRAS) [2]: A (a compound having 10 or more and less than 20 is denoted as A)

CCO[C@@H]1C[C@H]2C(=O)NC3(CCC3)C(=O)N(C)[C@@H](C3CCCC3)C(=O)N(C)[C@H](C(=O)N(C)C)CC(=O)N(C)[C@@H](CC3CCCC3)C(=O)N[C@@H]([C@@H](C)CC)C(=O)N(C)CC(=O)N(C)[C@H]3C/C=C\CCN(C3=O)[C@@H](Cc3ccc(C)cc3)C(=O)N(C)CC(=O)N[C@@H](CCc3ccc(C4CC4)c(Cl)c3)C(=O)N2C1 [PP2684]
HRAS/KRAS (ratio of KD value with respect to GDP-bound HRAS wild-type protein to KD value with respect to KRAS) [1]: A (a compound having 10 or more and less than 20 is denoted as A)
NRAS/KRAS (ratio of KD value with respect to GDP-bound NRAS wild-type protein to KD value with respect to KRAS) [2]: A (a compound having 10 or more and less than 20 is denoted as A)

CCO[C@@H]1C[C@H]2C(=O)NC3(CCC3)C(=O)N(C)[C@@H](C3CCCC3)C(=O)N(C)[C@H](C(=O)N(C)C)CC(=O)N(C)[C@@H](CC3CCCC3)C(=O)N[C@@H]([C@@H](C)CC)C(=O)N(C)CC(=O)N(C)[C@H]3C/C=C\CCN(C3=O)[C@@H](Cc3ccc(C)cc3)C(=O)N(C)CC(=O)N[C@@H](CCc3ccc(C4CC4)c(C)c3)C(=O)N2C1 [PP2685]
HRAS/KRAS (ratio of KD value with respect to GDP-bound HRAS wild-type protein to KD value with respect to KRAS) [1]: A (a compound having 10 or more and less than 20 is denoted as A)
NRAS/KRAS (ratio of KD value with respect to GDP-bound NRAS wild-type protein to KD value with respect to KRAS) [2]: A (a compound having 10 or more and less than 20 is denoted as A)

CCO[C@@H]1C[C@H]2C(=O)NC3(CCC3)C(=O)N(C)[C@@H](C3CCCC3)C(=O)N(C)[C@H](C(=O)N(C)C)CC(=O)N(C)[C@@H](CC3CCCC3)C(=O)N[C@@H]([C@@H](C)CC)C(=O)N(C)CC(=O)N(C)[C@H]3C/C=C\CCN(C3=O)[C@@H](Cc3ccc(C)cc3)C(=O)N(C)CC(=O)N[C@@H](CCc3ccc(CC)c(F)c3)C(=O)N2C1 [PP2686]
HRAS/KRAS (ratio of KD value with respect to GDP-bound HRAS wild-type protein to KD value with respect to KRAS) [1]: A (a compound having 10 or more and less than 20 is denoted as A)
NRAS/KRAS (ratio of KD value with respect to GDP-bound NRAS wild-type protein to KD value with respect to KRAS) [2]: A (a compound having 10 or more and less than 20 is denoted as A)

From patent publication US20250230193A1, “CYCLIC COMPOUND HAVING SELECTIVE KRAS INHIBITORY EFFECT ON HRAS AND NRAS” (CHUGAI SEIYAKU KABUSHIKI KAISHA, priority 2022, published 2025)
